Several values for one entry are separate records, joined by “and”; a condition that tells them apart may be missing. Identical values can stand only once. Like-named read-outs stand apart in the source and are kept apart here.
Columns and labels:
[1] = Description: Unless otherwise stated, all chemicals and materials were ordered from Merck Life Science. Each biological replicate was prepared in triplicates. […] The negative control contained buffer instead of NADPH solution. Samples were collected at 0, 10, 20 and 40 min or 0 and 40 min for the negative and double negative controls. The reaction was stopped by protein precipitation in 2 volumes of ice cold MeOH with 200 nM imipramine (as an internal standard for LC-MS analysis). Then, the extract was mixed (1 min, 1000 rpm), filtered through 0.22 μm filter on 96-well plate vacuum manifold and subjected to LC-MS analysis. Metabolic stability in mouse and human cryopreserved hepatocytes was performed in suspension on 96-well tissue culture plates at 1 μM concentration in Williams medium E with CM4000 supplements (ThermoFisher Scientific). Cells were thawed according to the manufacturers manual, counted and preincubated for 30 min in a CO2 incubator (5% CO2, 37 °C, 5 · 10^4 cells/well). For the negative control cells were thermally inactivated for 5 min at 95 °C. Similarly to microsomal stability, experiments were done in technical triplicates, with the additional time point at 80’. Samples for LC-MS analysis were prepared as described for microsomes. Intrinsic clearance (Clint) was calculated using the rate of compound disappearance from the reaction. The elimination rate constant (k) was calculated as a module of slope of the linear regression from ln [substrate] vs time. Then, clearance was calculated as Clint = k/d, where d is protein or cell density for microsomal and hepatocyte stability, respectively.
The mobile phases were (A) 10 mM ammonium acetate pH 5.4 in water and (B) methanol. Samples were eluted using a timed, linear gradient from 30% B at 0 min to 90% B at 1.5 min then a hold 90% B to 2.5 min, after it back to initial 30% B to 2.6 min. The columns was equilibrated for up to 5 min. The flow rate was 0.5 mL/min. The injection volume was 3 μL.

HRH1 = molecular target: T1, HRH1 (Homo sapiens, UniProt P35367); assay: SafetyScan44; format: cell-based; details: 10 μM
T1 construct: purchased DiscoverX (Eurofins) SafetyScan44
Description: (§1) SafetyScan44 assay was performed by DiscoverX according to service provider’s protocol.

PDE3A = molecular target: T2, PDE3A (Homo sapiens, UniProt Q14432); assay: SafetyScan44; format: cell-based; details: 10 μM; Inhibitor mode
T2 construct: purchased DiscoverX (Eurofins) SafetyScan44
Description: as §1

OPRK1 = molecular target: T3, OPRK1 (Homo sapiens, UniProt P41145); assay: SafetyScan44; format: cell-based; details: 10 μM
T3 construct: purchased DiscoverX (Eurofins) SafetyScan44
T3 sequence (P41145 whole entry): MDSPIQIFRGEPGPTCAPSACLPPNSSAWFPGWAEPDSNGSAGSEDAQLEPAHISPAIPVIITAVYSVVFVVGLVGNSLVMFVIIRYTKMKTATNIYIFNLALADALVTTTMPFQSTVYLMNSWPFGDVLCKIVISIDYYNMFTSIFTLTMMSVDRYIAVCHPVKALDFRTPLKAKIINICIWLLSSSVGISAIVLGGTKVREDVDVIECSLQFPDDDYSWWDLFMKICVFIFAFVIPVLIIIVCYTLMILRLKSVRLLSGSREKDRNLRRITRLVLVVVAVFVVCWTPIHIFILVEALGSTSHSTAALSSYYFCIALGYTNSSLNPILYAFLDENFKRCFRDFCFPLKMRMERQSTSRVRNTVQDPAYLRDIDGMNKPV
Description: as §1

ADRA2A = molecular target: T4, ADRA2A (Homo sapiens, UniProt P08913); assay: SafetyScan44; format: cell-based; details: 10 μM
T4 construct: purchased DiscoverX (Eurofins) SafetyScan44
T4 sequence (P08913 whole entry): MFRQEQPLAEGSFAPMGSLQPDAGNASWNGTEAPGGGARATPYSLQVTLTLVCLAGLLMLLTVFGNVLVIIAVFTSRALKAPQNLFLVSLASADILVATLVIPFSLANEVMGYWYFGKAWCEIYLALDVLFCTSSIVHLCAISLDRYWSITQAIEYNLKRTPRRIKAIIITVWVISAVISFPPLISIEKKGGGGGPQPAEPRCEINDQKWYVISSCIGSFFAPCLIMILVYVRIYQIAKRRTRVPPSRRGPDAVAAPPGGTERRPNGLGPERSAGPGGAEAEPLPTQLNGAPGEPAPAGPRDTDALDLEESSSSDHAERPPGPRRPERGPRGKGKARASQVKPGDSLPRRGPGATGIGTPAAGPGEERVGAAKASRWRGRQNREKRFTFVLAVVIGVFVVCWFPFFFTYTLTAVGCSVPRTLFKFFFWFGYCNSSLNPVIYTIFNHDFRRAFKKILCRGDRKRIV
Description: as §1

CCKAR = molecular target: T5, CCKAR (Homo sapiens, UniProt P32238); assay: SafetyScan44; format: cell-based; details: 10 μM
T5 construct: purchased DiscoverX (Eurofins) SafetyScan44
Description: as §1

DRD2S = molecular target: T6, DRD2S (Homo sapiens, UniProt P14416); assay: SafetyScan44; format: cell-based; details: 10 μM
T6 construct: purchased DiscoverX (Eurofins) SafetyScan44
T6 sequence (P14416 1-414 isoform P14416-2): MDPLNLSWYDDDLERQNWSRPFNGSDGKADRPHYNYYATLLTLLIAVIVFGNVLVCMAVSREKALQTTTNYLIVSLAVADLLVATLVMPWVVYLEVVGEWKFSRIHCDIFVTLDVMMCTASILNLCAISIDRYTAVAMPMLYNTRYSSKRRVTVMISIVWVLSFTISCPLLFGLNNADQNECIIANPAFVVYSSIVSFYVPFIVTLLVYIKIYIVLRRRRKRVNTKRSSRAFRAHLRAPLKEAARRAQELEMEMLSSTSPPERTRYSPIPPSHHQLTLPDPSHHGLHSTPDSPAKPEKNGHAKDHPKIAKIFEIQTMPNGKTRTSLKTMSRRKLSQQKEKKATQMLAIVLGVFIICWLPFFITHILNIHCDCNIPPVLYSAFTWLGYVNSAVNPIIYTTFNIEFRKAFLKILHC
Description: as §1

CHRM3 = molecular target: T7, CHRM3 (Homo sapiens, UniProt P20309); assay: SafetyScan44; format: cell-based; details: 10 μM
T7 construct: purchased DiscoverX (Eurofins) SafetyScan44
T7 sequence (P20309 whole entry): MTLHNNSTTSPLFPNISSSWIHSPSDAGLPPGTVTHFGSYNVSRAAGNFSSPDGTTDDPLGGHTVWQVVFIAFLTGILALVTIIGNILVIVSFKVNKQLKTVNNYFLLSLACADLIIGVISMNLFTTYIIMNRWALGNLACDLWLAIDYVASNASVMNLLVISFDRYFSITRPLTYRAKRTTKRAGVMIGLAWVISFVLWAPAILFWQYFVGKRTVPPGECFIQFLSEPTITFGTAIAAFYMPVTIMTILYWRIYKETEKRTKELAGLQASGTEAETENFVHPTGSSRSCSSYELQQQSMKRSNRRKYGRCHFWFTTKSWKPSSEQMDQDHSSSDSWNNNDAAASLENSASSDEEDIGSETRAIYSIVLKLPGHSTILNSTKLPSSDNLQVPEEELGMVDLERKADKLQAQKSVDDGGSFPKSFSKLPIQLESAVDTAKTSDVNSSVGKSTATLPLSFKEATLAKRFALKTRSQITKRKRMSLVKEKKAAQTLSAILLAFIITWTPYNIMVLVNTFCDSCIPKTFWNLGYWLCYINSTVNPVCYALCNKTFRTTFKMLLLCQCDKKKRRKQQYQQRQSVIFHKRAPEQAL
Description: as §1

SERT = molecular target: T8, SERT (Homo sapiens, UniProt P31645); assay: SafetyScan44; format: cell-based; details: 10 μM; Blocker mode
T8 construct: purchased DiscoverX (Eurofins) SafetyScan44
Description: as §1

ADRA1A = molecular target: T9, ADRA1A (Homo sapiens, UniProt P35348); assay: SafetyScan44; format: cell-based; details: 10 μM
T9 construct: purchased DiscoverX (Eurofins) SafetyScan44
T9 sequence (P35348 whole entry): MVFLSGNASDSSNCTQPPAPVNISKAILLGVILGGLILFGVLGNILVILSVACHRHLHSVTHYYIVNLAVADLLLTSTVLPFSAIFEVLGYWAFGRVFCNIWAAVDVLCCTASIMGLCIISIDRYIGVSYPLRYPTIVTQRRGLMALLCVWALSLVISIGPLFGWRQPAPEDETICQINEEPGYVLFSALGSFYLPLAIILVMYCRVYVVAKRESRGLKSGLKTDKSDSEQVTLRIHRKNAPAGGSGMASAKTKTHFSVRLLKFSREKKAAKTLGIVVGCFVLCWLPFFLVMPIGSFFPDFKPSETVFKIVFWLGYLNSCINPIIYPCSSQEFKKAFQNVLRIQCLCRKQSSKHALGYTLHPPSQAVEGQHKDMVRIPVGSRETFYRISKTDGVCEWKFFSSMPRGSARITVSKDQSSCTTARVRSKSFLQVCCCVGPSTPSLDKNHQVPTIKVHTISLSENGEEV
Description: as §1

ADRB1 = molecular target: T10, ADRB1 (Homo sapiens, UniProt P08588); assay: SafetyScan44; format: cell-based; details: 10 μM
T10 construct: purchased DiscoverX (Eurofins) SafetyScan44
T10 sequence (P08588 whole entry): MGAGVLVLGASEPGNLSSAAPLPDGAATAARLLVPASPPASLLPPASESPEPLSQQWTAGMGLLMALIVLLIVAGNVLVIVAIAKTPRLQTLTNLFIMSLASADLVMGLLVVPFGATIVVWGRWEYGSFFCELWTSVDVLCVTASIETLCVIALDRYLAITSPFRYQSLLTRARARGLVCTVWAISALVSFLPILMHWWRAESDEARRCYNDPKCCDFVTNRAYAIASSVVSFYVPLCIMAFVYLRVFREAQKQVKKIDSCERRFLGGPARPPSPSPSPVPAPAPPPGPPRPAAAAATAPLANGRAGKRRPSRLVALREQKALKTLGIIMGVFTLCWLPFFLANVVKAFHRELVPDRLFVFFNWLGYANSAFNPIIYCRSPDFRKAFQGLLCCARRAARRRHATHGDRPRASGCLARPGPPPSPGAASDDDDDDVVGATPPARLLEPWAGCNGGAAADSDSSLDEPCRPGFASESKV
Description: as §1

CNR1 = molecular target: T11, CNR1 (Homo sapiens, UniProt P21554); assay: SafetyScan44; format: cell-based; details: 10 μM
T11 construct: purchased DiscoverX (Eurofins) SafetyScan44
Description: as §1

HTR2A = molecular target: T12, HTR2A (Homo sapiens, UniProt P28223); assay: SafetyScan44; format: cell-based; details: 10 μM
T12 construct: purchased DiscoverX (Eurofins) SafetyScan44
Description: as §1

HTR2B = molecular target: T13, HTR2B (Homo sapiens, UniProt P41595); assay: SafetyScan44; format: cell-based; details: 10 μM
T13 construct: purchased DiscoverX (Eurofins) SafetyScan44
T13 sequence (P41595 whole entry): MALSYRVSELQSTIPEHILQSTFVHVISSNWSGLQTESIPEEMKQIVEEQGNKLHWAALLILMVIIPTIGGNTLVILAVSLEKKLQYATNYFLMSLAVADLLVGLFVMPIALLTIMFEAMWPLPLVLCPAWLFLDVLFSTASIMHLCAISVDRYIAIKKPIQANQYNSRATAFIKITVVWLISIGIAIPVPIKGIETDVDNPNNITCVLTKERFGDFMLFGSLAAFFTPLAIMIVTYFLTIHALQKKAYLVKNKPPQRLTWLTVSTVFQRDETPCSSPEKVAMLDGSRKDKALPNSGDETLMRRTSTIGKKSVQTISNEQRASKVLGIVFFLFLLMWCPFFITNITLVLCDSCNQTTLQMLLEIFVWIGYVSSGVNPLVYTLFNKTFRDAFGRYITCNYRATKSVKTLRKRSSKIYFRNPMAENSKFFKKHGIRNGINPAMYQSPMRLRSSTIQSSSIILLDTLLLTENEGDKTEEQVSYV
Description: as §1

OPRD1 = molecular target: T14, OPRD1 (Homo sapiens, UniProt P41143); assay: SafetyScan44; format: cell-based; details: 10 μM
T14 construct: purchased DiscoverX (Eurofins) SafetyScan44
Description: as §1

GR = molecular target: T15, GR (Homo sapiens, UniProt P04150); assay: SafetyScan44; format: cell-based; details: 10 μM
T15 construct: purchased DiscoverX (Eurofins) SafetyScan44
T15 sequence (P04150 whole entry): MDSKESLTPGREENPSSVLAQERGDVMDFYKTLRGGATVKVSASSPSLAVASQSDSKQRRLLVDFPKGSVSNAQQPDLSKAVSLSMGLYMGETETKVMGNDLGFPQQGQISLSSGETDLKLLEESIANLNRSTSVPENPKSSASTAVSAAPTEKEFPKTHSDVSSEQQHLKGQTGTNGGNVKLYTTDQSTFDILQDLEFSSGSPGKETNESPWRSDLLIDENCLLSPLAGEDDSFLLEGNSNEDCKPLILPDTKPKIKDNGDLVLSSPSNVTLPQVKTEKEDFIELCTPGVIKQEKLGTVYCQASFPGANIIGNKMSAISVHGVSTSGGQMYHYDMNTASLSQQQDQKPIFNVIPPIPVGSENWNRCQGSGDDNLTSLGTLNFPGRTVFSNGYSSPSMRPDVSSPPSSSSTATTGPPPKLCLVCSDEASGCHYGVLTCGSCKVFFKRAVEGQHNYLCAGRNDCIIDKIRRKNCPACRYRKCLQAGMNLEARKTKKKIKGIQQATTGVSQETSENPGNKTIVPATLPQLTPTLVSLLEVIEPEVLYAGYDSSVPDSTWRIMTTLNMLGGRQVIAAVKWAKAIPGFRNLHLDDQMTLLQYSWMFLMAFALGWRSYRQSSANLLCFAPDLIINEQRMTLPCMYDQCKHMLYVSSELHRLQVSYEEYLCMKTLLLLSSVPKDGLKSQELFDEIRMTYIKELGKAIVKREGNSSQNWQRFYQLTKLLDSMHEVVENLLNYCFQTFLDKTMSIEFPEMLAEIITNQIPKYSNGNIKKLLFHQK
Description: as §1

MAOA = molecular target: T16, MAOA (Homo sapiens, UniProt P21397); assay: SafetyScan44; format: cell-based; details: 10 μM; Inhibitor mode
T16 construct: purchased DiscoverX (Eurofins) SafetyScan44
Description: as §1

EDNRA = molecular target: T17, EDNRA (Homo sapiens, UniProt P25101); assay: SafetyScan44; format: cell-based; details: 10 μM
T17 construct: purchased DiscoverX (Eurofins) SafetyScan44
T17 sequence (P25101 21-427): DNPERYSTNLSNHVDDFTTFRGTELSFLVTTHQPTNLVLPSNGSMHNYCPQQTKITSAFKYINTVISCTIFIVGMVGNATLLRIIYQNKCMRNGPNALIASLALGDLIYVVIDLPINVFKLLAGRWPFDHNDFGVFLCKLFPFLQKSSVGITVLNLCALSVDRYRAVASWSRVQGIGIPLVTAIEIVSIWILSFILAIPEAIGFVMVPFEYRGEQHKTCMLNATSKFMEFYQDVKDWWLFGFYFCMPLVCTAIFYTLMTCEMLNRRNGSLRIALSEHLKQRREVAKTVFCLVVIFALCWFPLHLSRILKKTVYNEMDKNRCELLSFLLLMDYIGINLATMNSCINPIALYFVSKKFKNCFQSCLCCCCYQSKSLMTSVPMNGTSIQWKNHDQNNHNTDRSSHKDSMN
Description: as §1

OPRM1 = molecular target: T18, OPRM1 (Homo sapiens, UniProt P35372); assay: SafetyScan44; format: cell-based; details: 10 μM
T18 construct: purchased DiscoverX (Eurofins) SafetyScan44
T18 sequence (P35372 whole entry): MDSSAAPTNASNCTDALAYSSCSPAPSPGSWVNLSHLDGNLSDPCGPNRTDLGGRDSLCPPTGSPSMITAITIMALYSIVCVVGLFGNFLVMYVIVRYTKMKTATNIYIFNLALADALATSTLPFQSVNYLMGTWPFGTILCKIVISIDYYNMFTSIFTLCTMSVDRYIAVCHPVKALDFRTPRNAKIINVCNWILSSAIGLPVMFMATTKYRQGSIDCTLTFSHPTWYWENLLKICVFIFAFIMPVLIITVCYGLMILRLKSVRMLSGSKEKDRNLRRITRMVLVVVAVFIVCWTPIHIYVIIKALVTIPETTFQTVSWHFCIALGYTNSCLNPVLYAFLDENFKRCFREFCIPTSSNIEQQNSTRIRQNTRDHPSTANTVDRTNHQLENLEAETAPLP
Description: as §1

B cells = assay: B lymphocyte activation assay; details: for CD25 expression (Fig 3A), single replicates / ki-67 expression (Fig 3B), single replicates: activated B cells
Description: B cells were isolated from human frozen PBMCs using EasySep Human CD19 Positive Isolation Kit (StemCell Technologies) according to manufacturers’ protocol. The cells were seeded in AIM V medium (Gibco). […] After 72 hours of culture the cells were stained with antibody againstCD25 (BC96, eBioscience) and ki-67 (Clone 20Raj1, Invitrogen) and analysed on FACSCalibur.

CD8 T cells = assay: CD8 T cell activation, IFNγ production; format: cell-based, human; details: for IFNγ release (Fig 3C), single replicates: activated CD8 T cells, 48 h
Description: CD8 T cells were isolated from human frozen PBMC using EasySep Human CD8 T cell Isolation Kit (StemCell Technologies) according to manufacturer’s protocol and cultured in AIM V medium (Gibco). To cell culture different concentrations of CPL302-253 were added. The cells were activated with Human T Cell Activation/Expansion Kit (Miltenyibiotec) according to manufacturer’s protocol. IFNγ production was measured after 48 h of activation in culture supernatants using IFNγ Human Uncoated ELISA Kit (Invitrogen) according to manufacturer’s protocol.

[2] = 72 h, concentration 1 (unit not given)
[3] = 72 h, concentration 10 (unit not given)
[4] = 72 h, concentration 100 (unit not given)
[5] = 72 h, concentration 1000 (unit not given)
[6] = 72 h, concentration 10000 (unit not given)

## CC(C)(C)N1CCN(Cc2cc3nc(-c4cncc5[nH]ccc45)cc(N4CCOCC4)n3n2)CC1 [CPL302-253]
[1]
  degradation in human hepatocytes: degradation was not observed at all
[1]; CD-1, mouse, 1 μM
  Clint, times lower when compared to verapamil: ~30 times
[1]; human, 1 μM
  Clint (Fig 5D), single replicates: 0
  Clint, times lower when compared to verapamil: ~70 times
[1]; mouse, 1 μM
  degradation, fold slower as compared to verapamil: 11 fold
HRH1; Agonist mode
  % Response HRH1 Agonist: -0.2%
HRH1; Antagonist mode
  % Response HRH1 Antagonist: 7.2%
PDE3A
  % Response PDE3A Inhibitor: -8.1%
OPRK1; Agonist mode
  % Response OPRK1 Agonist: -11.0%
OPRK1; Antagonist mode
  % Response OPRK1 Antagonist: 0.3%
ADRA2A; Agonist mode
  % Response ADRA2A Agonist: 0.4%
ADRA2A; Antagonist mode
  % Response ADRA2A Antagonist: -0.7%
CCKAR; Agonist mode
  % Response CCKAR Agonist: -2.8%
CCKAR; Antagonist mode
  % Response CCKAR Antagonist: -2.4%
DRD2S; Agonist mode
  % Response DRD2S Agonist: -4.5%
DRD2S; Antagonist mode
  % Response DRD2S Antagonist: -1.1%
CHRM3; Agonist mode
  % Response CHRM3 Agonist: 1.2%
CHRM3; Antagonist mode
  % Response CHRM3 Antagonist: 12.6%
SERT
  % Response SERT Blocker: 21.5%
ADRA1A; Agonist mode
  % Response ADRA1A Agonist: -22.5%
ADRA1A; Antagonist mode
  % Response ADRA1A Antagonist: -2.8%
ADRB1; Agonist mode
  % Response ADRB1 Agonist: 0.5%
ADRB1; Antagonist mode
  % Response ADRB1 Antagonist: 26.6%
CNR1; Agonist mode
  % Response CNR1 Agonist: -9.2%
CNR1; Antagonist mode
  % Response CNR1 Antagonist: -1.3%
HTR2A; Agonist mode
  % Response HTR2A Agonist: -1.5%
HTR2A; Antagonist mode
  % Response HTR2A Antagonist: 11.5%
HTR2B; Agonist mode
  % Response HTR2B Agonist: 1.5%
HTR2B; Antagonist mode
  % Response HTR2B Antagonist: 12.6%
OPRD1; Agonist mode
  % Response OPRD1 Agonist: -6.4%
OPRD1; Antagonist mode
  % Response OPRD1 Antagonist: 0.4%
GR; Agonist mode
  % Response GR Agonist: 0.0%
GR; Antagonist mode
  % Response GR Antagonist: -5.6%
MAOA
  % Response MAOA Inhibitor: 8.5%
EDNRA; Agonist mode
  % Response EDNRA Agonist: -3.3%
EDNRA; Antagonist mode
  % Response EDNRA Antagonist: -4.8%
OPRM1; Agonist mode
  % Response OPRM1 Agonist: -9.0%
OPRM1; Antagonist mode
  % Response OPRM1 Antagonist: 0.2%
B cells; B cells activated with ODN2006 and αIgM F(ab')2, 72 h
  B cell proliferation (ki-67 expression): blocked also B cell proliferation
B cells; B cells after BCR and TLR stimulation, 72 h
  concentration at which inhibition of CD25 expression was observed: 10 nM
B cells; [2]
  CD25 expression (Fig 3A), single replicates: 68 and 59 and 72 and 57
  ki-67 expression (Fig 3B), single replicates: 46 and 43.4 and 77
B cells; [3]
  CD25 expression (Fig 3A), single replicates: 52 and 60 and 66 and 49
  ki-67 expression (Fig 3B), single replicates: 48 and 23.5 and 54
B cells; [4]
  CD25 expression (Fig 3A), single replicates: 39 and 31 and 52 and 64 and 48
  ki-67 expression (Fig 3B), single replicates: 29 and 16.5 and 35
B cells; [5]
  CD25 expression (Fig 3A), single replicates: 9 and 22 and 24 and 38 and 20
  ki-67 expression (Fig 3B), single replicates: 23 and 2.4 and 24
B cells; [6]
  CD25 expression (Fig 3A), single replicates: 4 and 3 and 11 and 6
  ki-67 expression (Fig 3B), single replicates: 5 and 1
CD8 T cells; CD8 T cells after TCR engagement
  concentration at which IFNγ production was blocked: 1 nM
CD8 T cells; concentration 1 (unit not given)
  IFNγ release (Fig 3C), single replicates: 418.61 and 469.87 and 245.35
CD8 T cells; concentration 10 (unit not given)
  IFNγ release (Fig 3C), single replicates: 400.4 and 276.31 and 203.71
CD8 T cells; concentration 100 (unit not given)
  IFNγ release (Fig 3C), single replicates: 219.02 and 101.31 and 52.94
CD8 T cells; concentration 10000, first column (unit not printed)
  IFNγ release (Fig 3C), single replicates: 55.96 and 7.95 and 23.25
CD8 T cells; concentration 10000, second column (unit not printed)
  IFNγ release (Fig 3C), single replicates: 155.93 and 70.92 and 72.2

Source: paper PMC7377474, “Preclinical characterization of CPL302-253, a selective inhibitor of PI3Kδ, as the candidate for the inhalatory treatment and prevention of Asthma” (PLoS ONE, 2020)
